# Patent publication US7875647B2, “Heteroaryl-pyrazole derivatives as cannabinoid CB1 receptor antagonists” (Green Cross Corporation, priority 2006, dated 2011)
# Target: T1, Cannabinoid-1 receptor (CB1R) (Rattus norvegicus, UniProt P20272)
# T1 construct: The tissue obtained from the brain of SD rats was homogenized; from tissue; host or cells: brain of SD rats (membrane pellet of the homogenate)
# Assay: Cannabinoid-1 receptor (CB1R) binding affinity assay ([3H]CP-55940, rat CB-1 receptor binding protocol)
# Conditions: brain tissue of SD rats, [3H]CP-55940, 30° C. 60 min; read-out: IC50
# T1 sequence (P20272 whole entry): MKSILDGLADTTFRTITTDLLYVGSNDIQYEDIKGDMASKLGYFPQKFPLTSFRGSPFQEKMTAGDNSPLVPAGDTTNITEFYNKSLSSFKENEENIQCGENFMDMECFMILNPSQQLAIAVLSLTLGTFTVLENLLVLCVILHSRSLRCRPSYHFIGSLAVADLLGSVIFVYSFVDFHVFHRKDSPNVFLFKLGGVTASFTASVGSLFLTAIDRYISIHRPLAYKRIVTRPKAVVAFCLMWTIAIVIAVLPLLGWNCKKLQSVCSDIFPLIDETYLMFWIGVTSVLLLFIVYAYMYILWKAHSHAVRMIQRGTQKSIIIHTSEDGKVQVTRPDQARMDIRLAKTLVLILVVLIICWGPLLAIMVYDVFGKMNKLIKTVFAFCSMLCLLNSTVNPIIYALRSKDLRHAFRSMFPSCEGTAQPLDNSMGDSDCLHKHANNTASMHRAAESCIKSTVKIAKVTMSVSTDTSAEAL
row,SMILES,IC50
1,"CCC(C)c1nnc(-c2nn(-c3ccccc3Cl)c(-c3ccc(Br)cc3)c2C)s1 (stereo not drawn) [Example 428, 2-(5-(4-bromophenyl)-1-(2-chlorophenyl)-4-methyl-1H-pyrazol-3-yl)-5-sec-butyl-1,3,4-thiadiazole]",0.0157 µM
2,"Clc1ccc(-c2c(Cn3cncn3)c(-c3nnc(C4(c5ccc(Cl)cc5Cl)CC4)s3)nn2-c2ccc(Cl)cc2Cl)cc1 [Example 510, 2-(4-((1H-1,2,4-triazol-1-yl)methyl)-5-(4-chlorophenyl)-1-(2,4-dichlorophenyl)-1H-pyrazol-3-yl)-5-(1-(2,4-dichlorophenyl)cyclopropyl)-1,3,4-thiadiazole]",0.0113 µM
3,"Cc1c(-c2nnc(C3CCCCCC3)s2)nn(-c2ccc(Cl)cc2Cl)c1-c1ccc(Br)cc1 [Example 378, 2-(5-(4-Bromophenyl)-1-(2,4-dichlorophenyl)-4-methyl-1H-pyrazol-3-yl)-5-cycloheptyl-1,3,4-thiadiazole]",0.031 µM
4,"Cc1c(-c2n[nH]c(-c3ccco3)n2)nn(-c2ccc(Cl)cc2Cl)c1-c1ccc(Cl)cc1 [Example 616, 3-(5-(4-chlorophenyl)-1-(2,4-dichlorophenyl)-4-methyl-1H-pyrazol-3-yl)-5-(furan-2-yl)-1H-1,2,4-triazole]",0.534 µM
5,"CCc1c(-c2nnc(C3CC4CCC3C4)s2)nn(-c2ccc(Cl)cc2Cl)c1-c1ccc(Br)cc1 (stereo not drawn) [Example 452, 2-(bicyclo[2.2.1]heptan-2-yl)-5-(5-(4-bromophenyl)-1-(2,4-dichlorophenyl)-4-ethyl-1H-pyrazol-3-yl)-1,3,4-thiadiazole]",0.0541 µM
6,"Clc1ccc(-c2c(Cl)c(-c3nnc(C4CCCCC4)o3)nn2-c2ccc(Cl)cc2Cl)cc1 [Example 335, 2-(4-chloro-5-(4-chlorophenyl)-1-(2,4-dichlorophenyl)-1H-pyrazol-3-yl)-5-cyclohexyl-1,3,4-oxadiazole]",0.512 µM
7,"CCCCC(C)c1nnc(-c2nn(-c3ccc(Cl)cc3Cl)c(-c3ccc(Br)cc3)c2CC)s1 (stereo not drawn) [Example 388, 2-(5-(4-bromophenyl)-1-(2,4-dichlorophenyl)-4-ethyl-1H-pyrazol-3-yl)-5-(hexan-2-yl)-1,3,4-thiadiazole]",0.00701 µM
8,"CCc1c(-c2nnc(CC3CCCCC3)s2)nn(-c2ccc(Cl)cc2Cl)c1-c1ccc(Br)cc1 [Example 386, 2-(5-(4-bromophenyl)-1-(2,4-dichlorophenyl)-4-ethyl-1H-pyrazol-3-yl)-5-(cyclohexylmethyl)-1,3,4-thiadiazole]",0.0132 µM
9,"CCC(C)(C)c1nnc(-c2nn(-c3ccc(Cl)cc3)c(-c3ccc(Cl)cc3)c2C)s1 [Example 448, 2-(1,5-bis(4-chlorophenyl)-4-methyl-1H-pyrazol-3-yl)-5-tert-pentyl-1,3,4-thiadiazole]",0.199 µM
10,"Clc1ccc(-c2c(Br)c(-c3nnc(C4(c5ccc(Cl)cc5)CC4)s3)nn2-c2ccc(Cl)cc2Cl)cc1 [Example 547, 2-(4-bromo-5-(4-chlorophenyl)-1-(2,4-dichlorophenyl)-1H-pyrazol-3-yl)-5-(1-(4-chlorophenyl)cyclopropyl)-1,3,4-thiadiazole]",0.0129 µM

# Other lines, results leading:
row,IC50,SMILES
1,0.0198 µM,"CCc1c(-c2nnc(C3(CC)CC3)s2)nn(-c2ccc(Cl)cc2Cl)c1-c1ccc(Cl)cc1 [Example 489, 2-(5-(4-chlorophenyl)-1-(2,4-dichlorophenyl)-4-ethyl-1H-pyrazol-3-yl)-5-(1-ethylcyclopropyl)-1,3,4-thiadiazole]"
2,0.0939 µM,"CC(C)(C)c1nnc(-c2nn(-c3ccc(Cl)cc3Cl)c(-c3ccc(Cl)cc3)c2CN2CCCC2=O)o1 [Example 306, 1-((3-(5-tert-butyl-1,3,4-oxadiazol-2-yl)-5-(4-chlorophenyl)-1-(2,4-dichlorophenyl)-1H-pyrazol-4-yl)methyl)pyrrolidin-2-one]"
3,0.0692 µM,"CCCCCc1nnc(-c2nn(-c3ccc(Cl)cc3Cl)c(-c3ccc(Cl)cc3)c2C)s1 [Example 361, 2-(5-(4-Chlorophenyl)-1-(2,4-dichlorophenyl)-4-methyl-1H-pyrazol-3-yl)-5-pentyl-1,3,4-thiadiazole]"
4,0.0814 µM,"Clc1ccc(-c2c(Br)c(-c3nnc(C4CCCCC4)o3)nn2-c2ccc(Cl)cc2Cl)cc1 [Example 341, 2-(4-bromo-5-(4-chlorophenyl)-1-(2,4-dichlorophenyl)-1H-pyrazol-3-yl)-5-cyclohexyl-1,3,4-oxadiazole]"
5,0.348 µM,"Cc1c(-c2n[nH]c(C3CCC3)n2)nn(-c2ccc(Cl)cc2Cl)c1-c1ccc(Cl)cc1 [Example 621, 3-(5-(4-chlorophenyl)-1-(2,4-dichlorophenyl)-4-methyl-1H-pyrazol-3-yl)-5-cyclobutyl-1H-1,2,4-triazole]"
6,0.00681 µM,"CCc1c(-c2nnc(C3(c4ccccc4F)CC3)s2)nn(-c2ccc(Cl)cc2Cl)c1-c1ccc(Cl)cc1 [Example 501, 2-(5-(4-chlorophenyl)-1-(2,4-dichlorophenyl)-4-ethyl-1H-pyrazol-3-yl)-5-(1-(2-fluorophenyl)cyclopropyl)-1,3,4-thiadiazole]"
7,0.0305 µM,"CCc1c(-c2nnc(C3CCCCC3)s2)nn(-c2ccc(Cl)cc2Cl)c1-c1ccc(Br)cc1 [Example 374, 2-(5-(4-Bromophenyl)-1-(2,4-dichlorophenyl)-4-ethyl-1H-pyrazol-3-yl)-5-cyclohexyl-1,3,4-thiadiazole]"
8,0.0361 µM,"Cc1c(-c2nnc(C(C)(C)Oc3ccccn3)o2)nn(-c2ccc(Cl)cc2Cl)c1-c1ccc(Cl)cc1 [Example 80, 2-(5-(4-chlorophenyl)-1-(2,4-dichlorophenyl)-4-methyl-1H-pyrazol-3-yl)-5-(2-(pyridin-2-yloxy)propan-2-yl)-1,3,4-oxadiazole]"
9,0.0602 µM,"Cc1c(-c2nnc(C3(C(C)O)CC3)o2)nn(-c2ccc(Cl)cc2Cl)c1-c1ccc(Cl)cc1 (stereo not drawn) [Example 288, 1-(1-(5-(5-(4-chlorophenyl)-1-(2,4-dichlorophenyl)-4-methyl-1H-pyrazol-3-yl)-1,3,4-oxadiazol-2-yl)cyclopropyl)ethanol]"
10,0.00798 µM,"CCc1c(-c2nnc(C3(c4ccc(Cl)cc4)CC3)s2)nn(-c2ccc(Cl)cc2Cl)c1-c1ccc(Br)cc1 [Example 432, 2-(5-(4-bromophenyl)-1-(2,4-dichlorophenyl)-4-ethyl-1H-pyrazol-3-yl)-5-(1-(4-chlorophenyl)cyclopropyl)-1,3,4-thiadiazole]"
11,0.0157 µM,"C=CCOCC(C)(C)c1nnc(-c2nn(-c3ccc(Cl)cc3Cl)c(-c3ccc(Cl)cc3)c2C)o1 [Example 97, 2-(1-(allyloxy)-2-methylpropan-2-yl)-5-(5-(4-chlorophenyl)-1-(2,4-dichlorophenyl)-4-methyl-1H-pyrazol-3-yl)-1,3,4-oxadiazole]"
12,0.00396 µM,"CCc1c(-c2nnc(C3(c4ccc(Cl)cc4)CC3)o2)nn(-c2ccc(Cl)cc2Cl)c1-c1ccc(Br)cc1 [Example 111, 2-(5-(4-bromophenyl)-1-(2,4-dichlorophenyl)-4-ethyl-1H-pyrazol-3-yl)-5-(1-(4-chlorophenyl)cyclopropyl)-1,3,4-oxadiazole]"
13,0.013 µM,"CCc1c(-c2nnc(C3(C)CC3)o2)nn(-c2ccc(Cl)cc2Cl)c1-c1ccc(Br)cc1 [Example 276, 2-(5-(4-bromophenyl)-1-(2,4-dichlorophenyl)-4-ethyl-1H-pyrazol-3-yl)-5-(1-methylcyclopropyl)-1,3,4-oxadiazole]"
14,0.015 µM,"CC(C)c1c(-c2nnc(C3(C(F)(F)F)CC3)o2)nn(-c2ccc(Cl)cc2Cl)c1-c1ccc(Cl)cc1 [Example 190, 2-(5-(4-chlorophenyl)-1-(2,4-dichlorophenyl)-4-isopropyl-1H-pyrazol-3-yl)-5-(1-(trifluoromethyl)cyclopropyl)-1,3,4-oxadiazole]"
